Measured values reported in EPA's ToxValDB 9.5 (doi:10.2903/j.efsa.2011.1958).
Values after ≈ are worked out from the molar mass of the structure shown. Values joined by “and” are separate entries in the source; they are usually repeats but may differ in a detail not shown here. Equal values may be shown once.

Columns and labels:
[1] = tested on: Aphidius rhopalosiphi; assay: LR50; higher = less toxic; details: acute; duration: 7 days; reproduction
[2] = tested on: Typhlodromus pyri; assay: LR50; higher = less toxic; details: acute; duration: 48 hours; reproduction
[3] = tested on: Daphnia magna; details: chronic/long-term; duration: 21 days; reproduction
[4] = tested on: Oncorhynchus mykiss; details: acute; duration: 96 hours; mortality
[5] = tested on: Landoltia sp.; details: acute; duration: 14 days; growth
[6] = tested on: Tagia sp.; details: acute; duration: 14 days; mortality
[7] = tested on: Apis mellifera; details: acute; duration: 48 hours; oral; unspecified; mortality
[8] = tested on: Anas platyrhynchos; details: acute; oral; unspecified; mortality
[9] = tested on: Colinus virginianus; details: acute, oral, mortality
[10] = tested on: Rattus norvegicus
[11] = tested on: Pimephales promelas; details: chronic/long-term; duration: 28 days; growth

Compound: CN(C)C(=O)Nc1cccc(C(F)(F)F)c1 [Fluometuron]
- LR50 [1]: 398 g/ha
- LR50 [2]: 28.9 g/ha
- NOEC [3]: 6.6 mg/L
- LC50 [4]: 30 µg/mL (≈ 129 µM)
- NOEC [5]: 0.185 mg/L
- LC50 [6]: 1000 mg/kg
- LD50 [7]: > 34 µg/piece
- LD50 [8]: 2970 mg/kg
- LC50 ([9]; diet): > 1600 mg/kg and 4310 mg/kg
- LD50 [9]: > 2150 mg/kg
- LD50 ([10]; acute, oral, mortality): > 5000 mg/kg
- NOAEL ([10]; chronic, duration: 104 weeks, hematological): 0.553 mg/kg-day
- NOEL ([10]; developmental, development): 24 mg/kg-day
- NOAEL ([10]; reproduction developmental, other): 0.8 mg/kg-day
- NOEC [11]: 3.1 mg/L
